According to PMC4941420, “A Rational Approach for the Identification of Non-Hydroxamate HDAC6-Selective Inhibitors” (Scientific Reports, 2016):

Tests used:
Cytotoxicity XTT, HeLa = type: cell-based, human; settings: human, HeLa cells, mean ± SD of 3 independent experiments in triplicate, read-out: cytotoxic IC50 HeLa
Description: HeLa and HEK 293 cells (ATCC CRL-1573) were cultured as described above and seeded into 96-well plates at 400 cells/well. Test and standard compounds were added to plate wells in triplicate (0.05% DMSO in culture medium) in a range of six concentrations. Following 72 h of incubation, […] of an activated XTT solution was added to the cells (1 mg/mL). The absorbance was measured at 450 nm after 2 h incubation at 37 °C. The growth of the compound-treated cells was compared with the growth of vehicle-treated control cells. IC50 values were calculated with GraphPad Prism 6.0.

HDAC2 = biological target: T1, HDAC2 (Homo sapiens, UniProt Q92769); assay: In vitro enzymatic assay HDAC2 (Fluor de Lys); type: biochemical; settings: average of at least 2 independent experiments in duplicates ± SEM
T1 construct: purchased Sigma Aldrich or Reaction Biology Corporation
T1 sequence (Q92769 whole entry): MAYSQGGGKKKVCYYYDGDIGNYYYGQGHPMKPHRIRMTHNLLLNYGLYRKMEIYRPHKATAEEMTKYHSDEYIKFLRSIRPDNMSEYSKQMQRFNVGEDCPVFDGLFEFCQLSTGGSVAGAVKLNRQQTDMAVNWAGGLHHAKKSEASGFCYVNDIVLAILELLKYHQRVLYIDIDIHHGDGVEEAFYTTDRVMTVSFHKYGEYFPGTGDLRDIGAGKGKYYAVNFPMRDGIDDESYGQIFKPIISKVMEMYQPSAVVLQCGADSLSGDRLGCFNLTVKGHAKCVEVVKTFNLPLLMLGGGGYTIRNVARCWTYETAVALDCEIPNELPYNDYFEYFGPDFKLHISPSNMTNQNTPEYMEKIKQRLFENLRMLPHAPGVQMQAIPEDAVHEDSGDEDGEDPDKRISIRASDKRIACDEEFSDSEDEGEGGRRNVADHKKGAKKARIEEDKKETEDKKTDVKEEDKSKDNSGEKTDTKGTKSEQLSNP

[1] = test system: histone H4 acetylation in HeLa cells; assay: Acetyl histone H4 Western blotting in HeLa cells; type: cell-based, human; settings: 500 μM, 6 h
Description: The acetyl-α-tubulin sandwich ELISA Kit (Pathscan® #7204, Cell Signalling) was used to determine tubulin acetylation levels, and Western blotting was used to evaluate histone H4 acetylation, both methods applied to lysates of treated and non-treated HeLa cells (ATCC CCL-2). Cells were cultured in DMEM medium, 4.5 g/L glucose, L-glutamine (Invitrogen), supplemented with 10% heat-inactivated fetal bovine serum (FBS, Biowest), 100 units/mL penicillin, and 100 μg/mL streptomycin, and 1% non-essential amino acids (Invitrogen) at 37 °C with 5% CO2. Prior to ELISA experiments, cells were seeded into 6-well plates at 150,000 cells/well and transfected with the HDAC6-GFP construct (pEGFP.N1-HDAC6, Addgene)[58], using the Lipofectamine 2000 reagent (Invitrogen). Cells were then treated with test compounds, standards or vehicle (0.5% DMSO in culture medium) for 48 h. After the incubation time, cells were washed with cold DPBS (Invitrogen) and lysates were obtained by recovering cells in cold lysis buffer provided in the ELISA kit, supplemented with a protease inhibitor tablet (SigmaFast, Sigma Aldrich). Briefly, cells were harvested in DPBS and centrifuged. The cell pellet was suspended in 100 μL lysis buffer, vortexed, and kept on melting ice for 30 min. […] Protein concentration was determined by fluorimetry using the Qubit protein assay kit (Invitrogen). […]

[2] = test system: α-tubulin acetylation in HeLa cells; assay: Acetyl-α-tubulin sandwich ELISA in HeLa cells; type: cell-based, human; settings: 48 h
Description: The acetyl-α-tubulin sandwich ELISA Kit (Pathscan® #7204, Cell Signalling) was used to determine tubulin acetylation levels, and Western blotting was used to evaluate histone H4 acetylation, both methods applied to lysates of treated and non-treated HeLa cells (ATCC CCL-2). Cells were cultured in DMEM medium, 4.5 g/L glucose, L-glutamine (Invitrogen), supplemented with 10% heat-inactivated fetal bovine serum (FBS, Biowest), 100 units/mL penicillin, and 100 μg/mL streptomycin, and 1% non-essential amino acids (Invitrogen) at 37 °C with 5% CO2. Prior to ELISA experiments, cells were seeded into 6-well plates at 150,000 cells/well and transfected with the HDAC6-GFP construct (pEGFP.N1-HDAC6, Addgene)[58], using the Lipofectamine 2000 reagent (Invitrogen). Cells were then treated with test compounds, standards or vehicle (0.5% DMSO in culture medium) for 48 h. After the incubation time, cells were washed with cold DPBS (Invitrogen) and lysates were obtained by recovering cells in cold lysis buffer provided in the ELISA kit, supplemented with a protease inhibitor tablet (SigmaFast, Sigma Aldrich). Briefly, cells were harvested in DPBS and centrifuged. The cell pellet was suspended in 100 μL lysis buffer, vortexed, and kept on melting ice for 30 min. Lysates were then obtained by recovering the supernatant after a centrifugation step of 10 min at 11,000 g, 4 °C. Protein concentration was determined by fluorimetry using the Qubit protein assay kit (Invitrogen). Cell lysates were tested at 1 mg/mL following the instructions provided by the ELISA kit manufacturer. For the Western blotting, cells were seeded into 100 mm Petri dishes and treated for 6 h. After the incubation time, cells were washed with cold DPBS (Invitrogen) supplemented with a protease inhibitor tablet (Sigma Fast, Sigma Aldrich), and lysates were obtained by recovering cells in 100 μL cold lysis buffer (10 mM Hepes pH 7.9, 1.5 mM MgCl2, 10 mM KCl, 0.5 mM DTT, 1.5 mM PMSF, 0.2M HCl) the same way as described above. […]

HDAC6 = biological target: T2, HDAC6 (Homo sapiens, UniProt Q9UBN7); assay: In vitro enzymatic assay HDAC6 (Fluor de Lys); type: biochemical
T2 construct: purchased Sigma Aldrich or Reaction Biology Corporation
T2 sequence (Q9UBN7 1-1215): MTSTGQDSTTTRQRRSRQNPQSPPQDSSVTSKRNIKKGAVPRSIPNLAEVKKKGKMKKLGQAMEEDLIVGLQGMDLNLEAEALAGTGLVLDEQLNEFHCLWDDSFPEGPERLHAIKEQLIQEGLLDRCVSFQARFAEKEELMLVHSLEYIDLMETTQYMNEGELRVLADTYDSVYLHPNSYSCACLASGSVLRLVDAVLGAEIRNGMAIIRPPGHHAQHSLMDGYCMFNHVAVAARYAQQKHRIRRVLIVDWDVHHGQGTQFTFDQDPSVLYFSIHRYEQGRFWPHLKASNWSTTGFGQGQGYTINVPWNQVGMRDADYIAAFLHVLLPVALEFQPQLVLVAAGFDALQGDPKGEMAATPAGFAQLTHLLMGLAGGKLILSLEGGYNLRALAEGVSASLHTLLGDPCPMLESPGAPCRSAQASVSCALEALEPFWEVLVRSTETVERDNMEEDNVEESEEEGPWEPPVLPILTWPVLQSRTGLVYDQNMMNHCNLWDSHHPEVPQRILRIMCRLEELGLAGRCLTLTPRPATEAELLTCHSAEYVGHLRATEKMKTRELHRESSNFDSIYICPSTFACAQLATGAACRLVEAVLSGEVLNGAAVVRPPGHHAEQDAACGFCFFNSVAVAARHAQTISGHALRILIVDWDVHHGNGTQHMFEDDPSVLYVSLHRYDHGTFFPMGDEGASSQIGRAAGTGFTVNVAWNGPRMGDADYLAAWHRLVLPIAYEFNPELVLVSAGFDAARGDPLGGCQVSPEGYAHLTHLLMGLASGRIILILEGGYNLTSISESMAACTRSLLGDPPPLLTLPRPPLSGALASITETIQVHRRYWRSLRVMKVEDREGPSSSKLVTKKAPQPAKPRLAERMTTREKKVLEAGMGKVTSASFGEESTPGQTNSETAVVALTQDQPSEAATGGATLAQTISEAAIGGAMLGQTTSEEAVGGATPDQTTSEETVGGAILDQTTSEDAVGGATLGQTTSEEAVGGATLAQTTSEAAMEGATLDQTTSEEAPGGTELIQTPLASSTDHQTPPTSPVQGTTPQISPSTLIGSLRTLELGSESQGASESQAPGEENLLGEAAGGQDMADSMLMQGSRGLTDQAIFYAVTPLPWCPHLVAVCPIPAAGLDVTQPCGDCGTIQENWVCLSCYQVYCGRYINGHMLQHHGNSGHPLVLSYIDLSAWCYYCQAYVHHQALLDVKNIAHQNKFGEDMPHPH

Question: For `NNC(=O)c1ccc(COc2ccccc2Cl)cc1` [AK-14], which IC50 at 72 h (Cytotoxicity XTT, HeLa) is on record?
Answer: 299 ± 56.1 µM

Question: And the IC50 (HDAC2)?
Answer: > 1000 µM

Question: And the “acetylation profile of histone H4” value [1]?
Answer: did not change

Question: What about the acetylated tubulin levels ([2]; 250 μM) of the same compound?
Answer: less remarkable effect

Question: What about the acetylated tubulin levels ([2]; 500 μM) of the same compound?
Answer: significantly increase

Question: What about the IC50 (HDAC6; average of at least 2 independent experiments in duplicates ± SEM) of the same compound?
Answer: 12.8 ± 5.4 µM

Question: And the inhibition at 100 µM (HDAC6; read-out: HDAC6 % of inhibition at 100 µM)?
Answer: 70.7 ± 6%
